From patent US8017554B2, “3-amino-1,2-benzisothiazole compounds for combating animal pest” (BASF SE, priority 2006, dated 2011) come the findings set out here.

The melting point is the temperature of the solid-liquid transition.

Regarding `CCN1C(=N)c2c(OC)cccc2S1(=O)=O` [Compound example 3, 2-Ethyl-4-methoxy-1,1-dioxo-1,2-dihydro-1λ*6*-benzo[d]isothiazol-3-ylideneamine], the melting point lay in the range of 111 to 114 °C.
